Experimental findings from patent US20100160335A1, “PYRIDAZINONE DERIVATIVE AND PDE INHIBITOR CONTAINING THE SAME AS ACTIVE INGREDIENT” (KYORIN PHARMACEUTICAL CO., LTD., priority 2007, published 2010) are described below.

Molecules are shown by their SMILES. Where two headings read alike, the source gives them in different places.

Assay [1] concerns LPS acute inflammation model in rats. The assay is described as follows: LPS acute inflammation model in rats (total leukocytes in BALF). Format: in vivo. The conditions noted are these: Rattus norvegicus, Leukocyte, po, 3 h, BALF 3 hours after LPS, read-out: Inhibition rate (total number of leukocytes in BALF). The procedure:
1 mg/kg of the compound was orally administered to rat one hour before inhalation of a lipopolysaccharide from E. coli serotype 055:B5 (LPS), and the rat was made to inhale 50 mL of the LPS solution nebulized using a nebulizer for 30 minutes. Then, 3 hours after the LPS inhalation, the rat was euthanized with 20% urethane (5 ml/rat, i.p.). 5 ml of physiological saline for bronchoalveolar lavage was injected into the bronchial tubes and alveoli through the airway, and the bronchial tubes and alveoli were washed three times using a 5 mL syringe. This operation was repeated twice, and the solution was collected as bronchoalveolar lavage fluid (BALF). The collected BALF was centrifuged at 1200 rpm and 4° C. for 10 minutes (Hirtachi; himac CR 5 DL). The pellet was re-suspended in 10 mL of a 0.1% bovine serum albumin-physiological saline, and an equivalent amount of Turk's solution was added thereto to stain leukocytes. The total number of leukocytes was counted under a microscope to calculate the inhibition rate. Further, the indications were as follows: inhibition rate≧90% (++) and 90%>inhibition rate≧50% (+). [ ] means the results of the drug administration after fasting overnight.

Assay [2] has as its system histamine-induced bronchoconstriction in guinea pigs. The assay is described as follows: Histamine-induced bronchoconstriction reaction in guinea pigs. It is filed as in vivo. The conditions noted are these: Cavia porcellus, iv, 0.5 min, guinea pig, measured 30 seconds after administration, read-out: Inhibition rate (histamine-induced bronchoconstriction); for inhibition in vivo at 0.3 mg/kg: compound 0.3 mg/kg, i.v.

The next assay deals with T1, PDE4Bcat (Homo sapiens, UniProt Q07343).
T1 construct: made in house; host or cells: Sf9 insect cells (baculovirus, Bac-to-Bac / Gateway)
T1 sequence (Q07343 330-659 limits assumed): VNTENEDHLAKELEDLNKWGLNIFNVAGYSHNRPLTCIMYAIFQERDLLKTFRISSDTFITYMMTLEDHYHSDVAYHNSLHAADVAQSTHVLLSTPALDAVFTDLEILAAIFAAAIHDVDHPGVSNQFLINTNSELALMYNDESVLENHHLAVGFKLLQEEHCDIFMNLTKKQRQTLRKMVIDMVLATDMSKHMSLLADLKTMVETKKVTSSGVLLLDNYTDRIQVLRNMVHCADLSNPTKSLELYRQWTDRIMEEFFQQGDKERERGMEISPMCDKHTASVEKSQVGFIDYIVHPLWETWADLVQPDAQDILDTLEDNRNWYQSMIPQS
The assay is described as follows: Phosphodiesterase inhibitory activity, PDE4 ([3H]cAMP, recombinant enzyme). Format: biochemical. To be noted: 30° C., 20 minutes, read-out: IC50(μmol/L) PDE4.

For assay [3], the target named is T2, PDE3A catalytic domain (PDE3Acat) (Homo sapiens, UniProt Q14432).
T2 construct: made in house; host or cells: Sf9 insect cells (baculovirus, Bac-to-Bac / Gateway)
T2 sequence (Q14432 674-1093 limits assumed): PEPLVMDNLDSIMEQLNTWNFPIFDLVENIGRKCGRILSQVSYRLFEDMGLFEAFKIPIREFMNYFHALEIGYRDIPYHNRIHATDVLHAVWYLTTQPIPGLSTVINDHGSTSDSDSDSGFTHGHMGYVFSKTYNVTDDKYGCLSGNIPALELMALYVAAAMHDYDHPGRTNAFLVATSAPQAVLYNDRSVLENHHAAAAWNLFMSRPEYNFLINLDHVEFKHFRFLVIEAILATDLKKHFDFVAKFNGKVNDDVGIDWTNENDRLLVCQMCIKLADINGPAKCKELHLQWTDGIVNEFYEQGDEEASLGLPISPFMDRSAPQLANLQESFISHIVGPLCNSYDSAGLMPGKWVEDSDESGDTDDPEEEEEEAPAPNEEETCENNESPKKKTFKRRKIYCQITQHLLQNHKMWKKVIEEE
Nature of the assay: Phosphodiesterase inhibitory activity, PDE3 ([3H]cAMP, recombinant enzyme). It is filed as biochemical. The conditions noted are these: 30° C., 20 minutes, read-out: IC50(μmol/L) PDE3.

The mark [4] stands for this setting: 1 mg/kg orally after fasting overnight (values in [ ]), one hour before LPS inhalation.

Turning to `COc1ccc(C2=NN(CCCCOc3ccc(C4=NNC(=O)CC4C)cc3)C(=O)CC2C)c2[nH]c(C(F)(F)F)nc12` (stereo not drawn) [Example 314, 6-(4-Methoxy-2-trifluoromethyl-1H-benzimidazol-7-yl)-5-methyl-2-[4-[4-(4-methyl-6-oxo-1,4,5,6-tetrahydropyridazin-3-yl)phenoxy]butyl]-4,5-dihydro-2H-pyridazin-3-one], the inhibition in vivo at 1 mg/kg in assay [1] (1 mg/kg orally one hour before LPS inhalation) was 50 to 90%. The inhibition in vivo at 0.3 mg/kg in assay [2] is 80 to 90%. Moreover, the IC50 (at PDE4Bcat; in assay [3]) was less than 0.1 µmol/L each time.

Take `COc1ccc(-c2ccc(=O)n(CCCCOc3ccc(C4=NNC(=O)CC4C)c(F)c3F)n2)c2cccnc12` (stereo not drawn) [Example 319, 2-[4-[2,3-Difluoro-4-(4-methyl-6-oxo-1,4,5,6-tetrahydropyridazin-3-yl)phenoxy]butyl]-6-(8-methoxyquinolin-5-yl)-2H-pyridazin-3-one]: in assay [1] (setting [4]), the inhibition in vivo at 1 mg/kg lay within 50 to 90%. Besides, the inhibition in vivo at 0.1 mg/kg in assay [2] (compound 0.1 mg/kg, i.v. (values in [ ])) is no less than 90%. Also, the results for the IC50 (at PDE4Bcat; in assay [3]) were 0.1 to 1 µmol/L and less than 0.1 µmol/L, respectively.

Consider `COc1ccc(-c2ccc(=O)n(CCCCOc3ccc(C4=NNC(=O)CC4)c(F)c3F)n2)c2cccnc12` [Example 320, 2-[4-[2,3-Difluoro-4-(6-oxo-1,4,5,6-tetrahydropyridazin-3-yl)phenoxy]butyl]-6-(8-methoxyquinolin-5-yl)-2H-pyridazin-3-one], for which the inhibition in vivo at 1 mg/kg in assay [1] (setting [4]) fell in the range of 50 to 90%. Besides, in assay [2], the inhibition in vivo at 0.3 mg/kg is no less than 90%. The IC50 (on PDE4Bcat; in assay [3]) was less than 0.1 µmol/L in each case.
